Assay results from article PMC7174758, “Synthesis and Biological Evaluation of HDAC Inhibitors With a Novel Zinc Binding Group” (Frontiers in Chemistry, 2020).

Columns and labels:
MCF-7 = experiment: MTT anti-proliferative assay, MCF-7; conditions: Homo sapiens, MCF7, 48 h, read-out: IC50 MCF-7
Description: (§3) The antitumor bioactivities of the tittle compounds in vitro were firstly evaluated against four different human tumor cell lines [breast lung cancer (A549), cervical cancer (Hela), liver cancer (HepG2), breast cancer (MCF-7)] via MTT assay, and a normal cell line [human lung fibroblast (WI-38)] was applied to assess the safety of the synthesized compounds. […] In this study, the tested compounds were diluted to the required concentration with culture medium, and growth inhibitory effects against the cell lines of the tittle compounds were determined by MTT colorimetric assay. […] The microplate reader was adopted to record the absorbance at 490 nm for each well of the plates.

acetyl-α-tubulin = experiment: Western blot, acetylation of α-tubulin in Hela cells; assay type: cell-based, human; conditions: 20 and 40 μM, 48 h
Description: (§1) Afterwards, the Hela cells were collected using centrifugation, and were then lysed by the lysate, which were carried out further centrifugation at 12,000 rpm for 30 min. The protein of supernatant obtained by centrifugation was quantified using the BCA kit (Beijing Solarbio Science & Technology Co., Ltd.), and the protein extracts were mixed with the SDS-PAGE protein loading buffer (Beijing Solarbio Science & Technology Co., Ltd.), which were subject to 100°C water bath for 10 min to sufficiently denaturate. The gel was gelatinized using the SDS Gel Kit (Beijing Solarbio Science & Technology Co., Ltd.) and protein extracts were separated by protein SDS-polyacrylamide gel electrophoresis and then transferred to Immobilon-NC Membrane (Beijing Solarbio Science & Technology Co., Ltd.). After the blocking with 5% non-fat dried milk in TBS for 90 min at room temperature, the membranes were incubated overnight with specific primary antibodies (AFFINITY BIOSCIENCE) at 4°C, which were further incubated with secondary antibodies for 2 h after washing three times with TBST. The chemiluminescence analysis system was applied to label the target protein with a specific primary antibody and the target protein was detected using a specific antibody.

HDAC6 = target: T1, HDAC6 (Homo sapiens, UniProt Q9UBN7); experiment: Fluor de Lys HDAC6 assay kit; assay type: biochemical
T1 construct: purchased Enzo Life Sciences BML-AK516
T1 sequence (Q9UBN7 1-1215): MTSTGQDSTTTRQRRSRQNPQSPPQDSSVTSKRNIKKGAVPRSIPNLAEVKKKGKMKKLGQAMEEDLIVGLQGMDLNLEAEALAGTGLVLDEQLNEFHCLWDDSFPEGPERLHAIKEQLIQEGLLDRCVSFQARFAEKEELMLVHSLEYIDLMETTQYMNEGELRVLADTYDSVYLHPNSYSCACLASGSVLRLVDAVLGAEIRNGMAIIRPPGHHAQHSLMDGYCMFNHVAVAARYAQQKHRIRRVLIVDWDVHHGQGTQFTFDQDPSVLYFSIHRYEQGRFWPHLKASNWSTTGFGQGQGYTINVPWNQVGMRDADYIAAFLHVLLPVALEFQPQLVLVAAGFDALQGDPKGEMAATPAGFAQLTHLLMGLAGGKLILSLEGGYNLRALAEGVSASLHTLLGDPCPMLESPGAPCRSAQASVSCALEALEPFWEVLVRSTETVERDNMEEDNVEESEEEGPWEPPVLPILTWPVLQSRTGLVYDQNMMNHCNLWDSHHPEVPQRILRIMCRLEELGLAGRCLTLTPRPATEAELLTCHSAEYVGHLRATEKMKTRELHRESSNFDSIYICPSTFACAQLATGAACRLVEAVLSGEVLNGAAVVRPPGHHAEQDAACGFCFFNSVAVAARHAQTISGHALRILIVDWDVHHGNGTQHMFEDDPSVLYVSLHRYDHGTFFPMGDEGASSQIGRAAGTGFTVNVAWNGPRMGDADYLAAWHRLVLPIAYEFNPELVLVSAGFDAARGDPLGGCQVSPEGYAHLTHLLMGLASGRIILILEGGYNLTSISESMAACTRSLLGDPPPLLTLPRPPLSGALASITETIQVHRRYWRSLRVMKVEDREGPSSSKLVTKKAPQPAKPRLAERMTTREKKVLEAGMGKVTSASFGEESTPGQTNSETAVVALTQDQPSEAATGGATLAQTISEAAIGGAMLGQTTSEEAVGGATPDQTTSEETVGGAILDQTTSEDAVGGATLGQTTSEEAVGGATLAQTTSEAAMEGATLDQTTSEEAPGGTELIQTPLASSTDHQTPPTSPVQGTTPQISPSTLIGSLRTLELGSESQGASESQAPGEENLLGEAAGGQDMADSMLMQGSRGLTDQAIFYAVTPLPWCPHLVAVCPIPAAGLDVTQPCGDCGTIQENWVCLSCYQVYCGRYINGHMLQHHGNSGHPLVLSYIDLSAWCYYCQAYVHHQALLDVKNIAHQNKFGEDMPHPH
Description: (§2) The generated fluorescence after the deacetylation of HDAC could be detected at the wavelengths of 485 nm (excitation) and 530 nm (emission) using the microplate reader (PerkinElmer, USA). The dose response of inhibition experiment was carried out in triplicate, and the IC50 data was calculated by GraphPad Prism 5.

acetyl-histone H3 = experiment: Western blot, acetylation of histone H3 in Hela cells; assay type: cell-based, human; conditions: 20 and 40 μM, 48 h
Description: as §1

HepG2 = experiment: MTT anti-proliferative assay, HepG2; conditions: Homo sapiens, HepG2, 48 h, read-out: IC50 HepG2
Description: as §3

Hela = experiment: MTT anti-proliferative assay, Hela; conditions: Homo sapiens, 48 h, read-out: IC50 Hela
Description: as §3

WI-38 = experiment: MTT cytotoxicity assay, normal cell line WI-38; conditions: Homo sapiens, WI-38, 48 h, read-out: IC50 WI-38
Description: as §3

[1] = system: HDACs extracted from Hela cervical cancer cells; experiment: Enzyme inhibition assay, Hela nuclear extract (HDAC Inhibitor Drug Screening Kit); conditions: read-out: Hela nuclear extract IC50; mean ± SD of three experiments
HDAC1 = target: T2, HDAC1 (Homo sapiens, UniProt Q13547); experiment: Fluor de Lys HDAC1 assay kit; assay type: biochemical; conditions: three independent experiments, mean ± SD
T2 construct: purchased Enzo Life Sciences BML-AK511
T2 sequence (Q13547 whole entry): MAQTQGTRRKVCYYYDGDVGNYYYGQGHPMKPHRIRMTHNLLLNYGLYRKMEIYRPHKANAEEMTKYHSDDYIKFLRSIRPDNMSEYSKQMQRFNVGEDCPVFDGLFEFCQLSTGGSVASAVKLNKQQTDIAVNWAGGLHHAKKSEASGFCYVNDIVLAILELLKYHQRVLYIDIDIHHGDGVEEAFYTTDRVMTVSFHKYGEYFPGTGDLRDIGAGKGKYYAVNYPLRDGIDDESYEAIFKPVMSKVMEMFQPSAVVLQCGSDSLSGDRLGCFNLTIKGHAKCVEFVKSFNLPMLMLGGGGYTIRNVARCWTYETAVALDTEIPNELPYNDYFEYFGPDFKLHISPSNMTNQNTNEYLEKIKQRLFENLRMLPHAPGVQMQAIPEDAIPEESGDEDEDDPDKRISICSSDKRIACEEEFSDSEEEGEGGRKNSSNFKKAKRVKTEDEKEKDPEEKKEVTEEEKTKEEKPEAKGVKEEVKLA
Description: as §2

A549 = experiment: MTT anti-proliferative assay, A549; conditions: Homo sapiens, A549, 48 h, read-out: IC50 A549
Description: as §3

IC50 (MCF-7): 40.1 ± 7.05 µM
inhibitory activity on HDAC6 relative to HDAC1 (HDAC6; HDAC6 vs HDAC1): more than ten folds
IC50 (HDAC6; three independent experiments, mean ± SD): 4.2 ± 1.27 µM
IC50 (HepG2): 28.4 ± 0.65 µM
IC50 (Hela): 13.7 ± 1.31 µM
IC50 [1]: 22.5 ± 5.2 µM
melting point: 147.6 to 148.5 °C
IC50 (HDAC1): 56.5 ± 2.7 µM
IC50 (A549): 26.5 ± 0.26 µM
Compound: O=C(CCCCCNC(=O)c1ccc(-c2ccccc2)cc1)NCCO [b8, N-(6-((2-hydroxyethyl)amino)-6-oxohexyl)-[1, 1'-biphenyl]-4-carboxamide]
acetylation level of α-Tubulin (acetyl-α-tubulin): increase
acetylation level of histone H3 (acetyl-histone H3): insensitive
IC50 (WI-38): 95.9 ± 4.28 µM
